Our source for the MIC values is patent EP4745118A1, “HYDROXAMIC ACID COMPOUND OR PHARMACEUTICALLY ACCEPTABLE SALT THEREOF, AND USE THEREOF AND PREPARATION METHOD THEREFOR” (priority 2023, dated 2025).

In brackets after ≈: the same amount, converted by molar mass.

For one experiment, the system named is Citrobacter freundii. Briefly: In vitro antibacterial activity, agar dilution method (MIC). Format: cell-based. Conditions: ATCC43864; Citrobacter freundii ATCC 43864; agar dilution, 35°C, 18 hours; read-out: MIC. As for the experimental part: (§1) According to the relevant operating procedures of the Clinical Laboratory Standards Institute (CLSI) in the United States, an antimicrobial susceptibility testing was conducted using the agar dilution method. […]. The agar was allowed to solidify and set aside for later use.
(§2) The test bacteria were propagated in broth and adjusted to a turbidity of 0.5 McFarland (approximately 1-2 × 10^8 CFU/mL) using a turbidimeter before inoculation. The 0.5 McFarland bacterial solution was then diluted 10-fold in broth (approximately 1-2 × 10^7 CFU/mL). A multipoint inoculator was used to inoculate the above bacterial solution onto a series of plates containing different concentrations of drugs (with an inoculation amount of approximately 10^4 CFU per inoculation site). After incubation at a constant temperature of 35°C for 18 hours, results were observed. The minimum concentration of drugs contained in sterile growth plates was determined as the Minimal Inhibitory Concentration (MIC).
A general note: Agar dilution tests growth on a series of plates holding different concentrations.
As usually defined, the MIC is the smallest concentration in the dilution series that meets the test's criterion for growth inhibition. Consider `COCC1CC1C#CC#Cc1ccc(C(=O)N[C@H](C(=O)NO)C(C)(C)N)cc1` (stereo partly shown) [Formula I], for which the minimum inhibitory concentration (MIC) was determined as 0.5 µg/mL.

With `C[C@@H](O)[C@H]1C(=O)N2C(C(=O)O)=C(SCCN=CN)C[C@H]12` [Imipenem], the minimum inhibitory concentration (MIC) turned out to be 0.25 µg/mL (≈ 0.835 µM).

Another experiment relates to Enterobacter aerogenes. Described as above. Format: cell-based. The conditions noted are these: Klebsiella aerogenes, ATCC13048; Enterobacter aerogenes ATCC 13048; agar dilution, 35°C, 18 hours; read-out: MIC. As for the experimental part:
as §1, §2
Consider `COCC1CC1C#CC#Cc1ccc(C(=O)N[C@H](C(=O)NO)C(C)(C)N)cc1` (stereo partly shown) [Formula I], for which the MIC was 2 µg/mL.

For the compound `C[C@@H](O)[C@H]1C(=O)N2C(C(=O)O)=C(SCCN=CN)C[C@H]12` [Imipenem], the minimum inhibitory concentration (MIC) was 0.25 µg/mL (≈ 0.835 µM).

In another experiment the test system is Escherichia coli. The experiment is described as above. Conditions: Escherichia coli, 18 h, Escherichia coli 13-43 (mcr-1); agar dilution, 35°C, 18 hours; read-out: MIC. Format: cell-based. As for the experimental part:
as §1, §2
Turning to `COCC1CC1C#CC#Cc1ccc(C(=O)N[C@H](C(=O)NO)C(C)(C)N)cc1` (stereo partly shown) [Formula I], the MIC amounted to 0.5 µg/mL.

With `C[C@@H](O)[C@H]1C(=O)N2C(C(=O)O)=C(SCCN=CN)C[C@H]12` [Imipenem], the minimum inhibitory concentration (MIC) worked out at 0.12 µg/mL (≈ 0.401 µM).

Staying with this experiment, now noted: Escherichia coli, 18 h, Escherichia coli 17-R28 (CRE, NDM-1-producing); agar dilution, 35°C, 18 hours; read-out: MIC.
For the compound `COCC1CC1C#CC#Cc1ccc(C(=O)N[C@H](C(=O)NO)C(C)(C)N)cc1` (stereo partly shown) [Formula I], the minimal inhibitory concentration (MIC) was 0.5 µg/mL.

With `C[C@@H](O)[C@H]1C(=O)N2C(C(=O)O)=C(SCCN=CN)C[C@H]12` [Imipenem], the minimum inhibitory concentration (MIC) was above 128 µg/mL.

Staying with this experiment, now noted: Escherichia coli, ATCC2469, 18 h, Escherichia coli ATCC 2469 (CRE, NDM-1-producing); agar dilution, 35°C, 18 hours; read-out: MIC.
Turning to `COCC1CC1C#CC#Cc1ccc(C(=O)N[C@H](C(=O)NO)C(C)(C)N)cc1` (stereo partly shown) [Formula I], the MIC worked out at 0.5 µg/mL.

For the compound `C[C@@H](O)[C@H]1C(=O)N2C(C(=O)O)=C(SCCN=CN)C[C@H]12` [Imipenem], the minimal inhibitory concentration (MIC) was found to be 8 µg/mL (≈ 26.7 µM).

Staying with this experiment, now noted: Escherichia coli, ATCC35218, 18 h, Escherichia coli ATCC 35218 (ESBLs-producing); agar dilution, 35°C, 18 hours; read-out: MIC.
With `COCC1CC1C#CC#Cc1ccc(C(=O)N[C@H](C(=O)NO)C(C)(C)N)cc1` (stereo partly shown) [Formula I], the minimum inhibitory concentration (MIC) was 0.5 µg/mL.

Consider `C[C@@H](O)[C@H]1C(=O)N2C(C(=O)O)=C(SCCN=CN)C[C@H]12` [Imipenem], for which the MIC is 0.12 µg/mL (≈ 0.401 µM).

The test system of the next experiment is Klebsiella pneumoniae. The description is as above. Conditions: Klebsiella pneumoniae, 18 h, Klebsiella pneumoniae 09-20 (mcr-1); agar dilution, 35°C, 18 hours; read-out: MIC. It counts as cell-based. As for the experimental part: as §1, §2
Take `COCC1CC1C#CC#Cc1ccc(C(=O)N[C@H](C(=O)NO)C(C)(C)N)cc1` (stereo partly shown) [Formula I]: the MIC was 2 µg/mL.

For `C[C@@H](O)[C@H]1C(=O)N2C(C(=O)O)=C(SCCN=CN)C[C@H]12` [Imipenem], the minimum inhibitory concentration (MIC) turned out to be 0.12 µg/mL (≈ 0.401 µM).

The same experiment, now with this note: Klebsiella pneumoniae, 18 h, Klebsiella pneumoniae 17-R27 (CRE); agar dilution, 35°C, 18 hours; read-out: MIC.
Take `COCC1CC1C#CC#Cc1ccc(C(=O)N[C@H](C(=O)NO)C(C)(C)N)cc1` (stereo partly shown) [Formula I]: the minimum inhibitory concentration (MIC) was determined as 2 µg/mL.

As for `C[C@@H](O)[C@H]1C(=O)N2C(C(=O)O)=C(SCCN=CN)C[C@H]12` [Imipenem], the MIC turned out to be 0.12 µg/mL (≈ 0.401 µM).

Staying with this experiment, now noted: Klebsiella pneumoniae, 18 h, Klebsiella pneumoniae 18-8 (ESBLs-producing); agar dilution, 35°C, 18 hours; read-out: MIC.
In the case of `C[C@@H](O)[C@H]1C(=O)N2C(C(=O)O)=C(SCCN=CN)C[C@H]12` [Imipenem], the minimum inhibitory concentration (MIC) was 0.12 µg/mL (≈ 0.401 µM).

Staying with this experiment, now noted: Klebsiella pneumoniae, ATCC700603, 18 h, Klebsiella pneumoniae ATCC 700603 (ESBLs-producing); agar dilution, 35°C, 18 hours; read-out: MIC.
In the case of `COCC1CC1C#CC#Cc1ccc(C(=O)N[C@H](C(=O)NO)C(C)(C)N)cc1` (stereo partly shown) [Formula I], the MIC amounted to 4 µg/mL.

On to `C[C@@H](O)[C@H]1C(=O)N2C(C(=O)O)=C(SCCN=CN)C[C@H]12` [Imipenem], for which the MIC was found to be 0.25 µg/mL (≈ 0.835 µM).

The same experiment, now with this note: Klebsiella pneumoniae, ATCCBAA2146, 18 h, Klebsiella pneumoniae ATCC BAA-2146 (CRE, NDM-1-producing); agar dilution, 35°C, 18 hours; read-out: MIC.
On to `COCC1CC1C#CC#Cc1ccc(C(=O)N[C@H](C(=O)NO)C(C)(C)N)cc1` (stereo partly shown) [Formula I], for which the MIC turned out to be 8 µg/mL.

Consider `C[C@@H](O)[C@H]1C(=O)N2C(C(=O)O)=C(SCCN=CN)C[C@H]12` [Imipenem], for which the minimal inhibitory concentration (MIC) stood at 32 µg/mL (≈ 107 µM).

The next experiment relates to Pantoea agglomerans. Described as above. Format: cell-based. Conditions: ATCC27993; Pantoea agglomerans ATCC 27993; agar dilution, 35°C, 18 hours; read-out: MIC. As for the experimental part:
as §1, §2
In the case of `COCC1CC1C#CC#Cc1ccc(C(=O)N[C@H](C(=O)NO)C(C)(C)N)cc1` (stereo partly shown) [Formula I], the MIC was 4 µg/mL.

Turning to `C[C@@H](O)[C@H]1C(=O)N2C(C(=O)O)=C(SCCN=CN)C[C@H]12` [Imipenem], the MIC was 0.12 µg/mL (≈ 0.401 µM).

The next experiment has as its system Proteus mirabilis. The description is as above. It counts as cell-based. The conditions noted are these: ATCC49565; Proteus mirabilis ATCC 49565; agar dilution, 35°C, 18 hours; read-out: MIC. The method, then: as §1, §2
As to `COCC1CC1C#CC#Cc1ccc(C(=O)N[C@H](C(=O)NO)C(C)(C)N)cc1` (stereo partly shown) [Formula I], the MIC turned out to be 2 µg/mL.

With `C[C@@H](O)[C@H]1C(=O)N2C(C(=O)O)=C(SCCN=CN)C[C@H]12` [Imipenem], the minimum inhibitory concentration (MIC) came to 1 µg/mL (≈ 3.34 µM).

The next experiment deals with Proteus vulgaris. The description is as above. It counts as cell-based. The conditions noted are these: ATCC29905; Proteus vulgaris ATCC 29905; agar dilution, 35°C, 18 hours; read-out: MIC. The method, then: as §1, §2
Consider `COCC1CC1C#CC#Cc1ccc(C(=O)N[C@H](C(=O)NO)C(C)(C)N)cc1` (stereo partly shown) [Formula I], for which the MIC stood at 0.5 µg/mL.

With `C[C@@H](O)[C@H]1C(=O)N2C(C(=O)O)=C(SCCN=CN)C[C@H]12` [Imipenem], the minimum inhibitory concentration (MIC) stood at 0.25 µg/mL (≈ 0.835 µM).

The test system of another experiment is Pseudomonas aeruginosa. The experiment is described as above. Format: cell-based. The conditions noted are these: Pseudomonas aeruginosa PAO1; agar dilution, 35°C, 18 hours; read-out: MIC. As for the experimental part:
as §1, §2
On to `COCC1CC1C#CC#Cc1ccc(C(=O)N[C@H](C(=O)NO)C(C)(C)N)cc1` (stereo partly shown) [Formula I], for which the MIC is 2 µg/mL.

The subject of a further experiment is Serratia marcescens. The description is as above. It counts as cell-based. The conditions noted are these: ATCC21074; Serratia marcescens ATCC 21074; agar dilution, 35°C, 18 hours; read-out: MIC. The method, then: as §1, §2
With `COCC1CC1C#CC#Cc1ccc(C(=O)N[C@H](C(=O)NO)C(C)(C)N)cc1` (stereo partly shown) [Formula I], the MIC turned out to be 0.5 µg/mL.

In the case of `C[C@@H](O)[C@H]1C(=O)N2C(C(=O)O)=C(SCCN=CN)C[C@H]12` [Imipenem], the MIC turned out to be 0.5 µg/mL (≈ 1.67 µM).

The subject of the next experiment is Enterobacter cloacae. The description is as above. It counts as cell-based. The conditions noted are these: Enterobacter cloacae CDC1000654 (NDM-1-producing); agar dilution, 35°C, 18 hours; read-out: MIC. The method, then: According to the relevant operating procedures of the Clinical Laboratory Standards Institute (CLSI) in the United States, an antimicrobial susceptibility testing was conducted using the agar dilution method. […] The agar was allowed to solidify and set aside for later use.
as §2
For `COCC1CC1C#CC#Cc1ccc(C(=O)N[C@H](C(=O)NO)C(C)(C)N)cc1` (stereo partly shown) [Formula I], the MIC was 4 µg/mL.

For `C[C@@H](O)[C@H]1C(=O)N2C(C(=O)O)=C(SCCN=CN)C[C@H]12` [Imipenem], the MIC amounted to 2 µg/mL (≈ 6.68 µM).

The test system of the next experiment is Shigella flexneri. The description is as above. It counts as cell-based. Conditions: ATCC12022, Shigella flexneri ATCC 12022, 35°C, 18 hours, read-out: MIC. The method, then: According to the relevant operating procedures of the Clinical Laboratory Standards Institute (CLSI) in the United States, an antimicrobial susceptibility testing was conducted using the agar dilution method. A 1920 µg/mL stock solution was serially diluted twofold with sterile water to obtain dilutions of 960, 480, 240, 120, 60, 30, 15, 7.5, 3.75, 1.88, 0.94, 0.47 µg/mL, and 1 mL of the dilution was taken respectively from the dilutions with different concentrations and added to a Petri dish, to which 14 mL of melted MH agar medium was added and mixed thoroughly, and the final concentration of the drug in the petri dish is 128, 64, 32, 16, 8, 4, 2, 1, 0.5, 0.25, 0.12, 0.06, and 0.03 µ g/mL, respectively. The agar was allowed to solidify and set aside for later use.
as §2
Regarding `COCC1CC1C#CC#Cc1ccc(C(=O)N[C@H](C(=O)NO)C(C)(C)N)cc1` (stereo partly shown) [Formula I], the minimum inhibitory concentration (MIC) worked out at 0.25 µg/mL.

Regarding `C[C@@H](O)[C@H]1C(=O)N2C(C(=O)O)=C(SCCN=CN)C[C@H]12` [Imipenem], the minimal inhibitory concentration (MIC) was found to be 0.12 µg/mL (≈ 0.401 µM).
